Activity calls are given as the source filed them. The calls are words filed in the database; no cut-off is given here.
Assays:
Melanoma tumor cell line = assay: Cytotoxicity against mouse melanoma cells at 26.6 ug/mL; type: functional, cell-based
Cancer cell lines = assay: Cytotoxicity against human colon cancer cells at 12.5 ug/mL; type: functional, cell-based

**Q.** With CC(C)=CCC/C(C)=C/CC/C(C)=C/CC/C=C(\C)CC/C=C(\C)CCC(=O)O as the molecule, how does the Activity (Melanoma tumor cell line) read?
**A.** Active

**Q.** What about the Activity (Cancer cell lines) of the same molecule?
**A.** Active
